Experimental data reported in patent US9241887B2, “Systems and methods for skin rejuvenation” (Sesvalia USA, LLC, priority 2009, dated 2016).

Columns and labels:
[1] = Antioxidant activity of active ingredients alone and combined (FIG. 1); conditions: for antioxidant activity when combined with Vitamin C and Vitamin E: polyphenol derivatives combined with Vitamin C and Vitamin E; for antioxidant activity relative to vehicle: ingredient alone, control = vehicle (mixture of ethanol and macrogol); for synergistic effect on antioxidant activity: ingredients combined
[2] = system: human skin; conditions: cited from earlier work
[3] = phospholipidic membranes; cited from earlier work
[4] = cited from earlier work
[5] = system: seasonal allergic rhinoconjunctivitis; conditions: oral supplementation; cited from earlier work
[6] = system: mild atopic dermatitis; conditions: 0.3% rosmarinic acid emulsion, topical application; cited from earlier work
[7] = system: human keratinocyte cell lines; conditions: cited from earlier work
[8] = system: human polymorphonuclear leukocytes; conditions: cited from earlier work
[9] = gastrointestinal tract and skin; cited from earlier work

O=C(O)/C=C/c1ccc(O)c(O)c1 [caffeic acid, 3,4-dihydroxycinnamic acid]
antioxidant activity when combined with Vitamin C and Vitamin E [1]: stronger antioxidant activity (more than twice)
protection from UVB-induced erythema [2]: protect human skin from UVB-induced erythema
protection from UV-induced peroxidation [3]: protect phospholipidic membranes from UV-induced peroxidation

Vitamin E
antioxidant activity relative to vehicle [1]: more than twice as much antioxidant activity as the vehicle

COc1cc(/C=C/C(=O)O)ccc1O [ferulic acid, Ferulic acid]
behaviour at acidic pH ([4]; acidic pH): precipitates into crystals
synergistic effect on antioxidant activity [1]: synergistic effect
antioxidant activity when combined with Vitamin C and Vitamin E [1]: stronger antioxidant activity (more than twice)

O=C(/C=C/c1ccc(O)c(O)c1)O[C@H](Cc1ccc(O)c(O)c1)C(=O)O [rosmarinic acid, alpha-o-caffeoyl-3,4-dihydroxyphenyl lactic acid]
treatment of seasonal allergic rhinoconjunctivitis [5]: effective treatment for seasonal allergic rhinoconjunctivitis
symptoms of mild atopic dermatitis [6]: improves some symptoms of the disease including the erythema, transepidermal water loss, xerosis and pruritus
antioxidant activity when combined with Vitamin C and Vitamin E [1]: stronger antioxidant activity (more than twice)
photoprotective effect against UVA-induced alterations [7]: photoprotective effects against alterations induced by UVA exposure
leukotriene B4 production [8]: reduce leukotriene B4 production
prostaglandin E2 production [8]: augment prostaglandin E2 production
absorption [9]: well absorbed through the gastrointestinal tract and the skin

O=C1O[C@H]([C@@H](O)CO)C(O)=C1O [Vitamin C, ascorbic acid]
antioxidant activity relative to vehicle [1]: more than twice as much antioxidant activity as the vehicle
synergistic effect on antioxidant activity [1]: synergistic effect

O=C(CCc1ccc(O)cc1)c1c(O)cc(O)cc1O [phloretin, Phloretin]
solubility in ethanol [4]: very soluble in ethanol
solubility in water [4]: insoluble in water
synergistic effect on antioxidant activity [1]: synergistic effect
antioxidant activity when combined with Vitamin C and Vitamin E [1]: stronger antioxidant activity (more than twice)
